In the assay the test system is organ cultured adipose tissue (epididymal fat tissue). Briefly: Adipose organ culture apoptosis assay (Bax immunostaining). The assay is classed as cell-based, rat. Particulars: seven days incubation, 1 μg TNF-α. The protocol: Epididymal fat tissue was excised and cut into pieces (1 cm^3), and cultured. Briefly, tissue was placed in Dulbecco's Modified Eagle Medium containing 10% fetal bovine serum and penicillin/streptomycin, and incubated at 37° C. Samples (n=3) were injected with PBS, TNF-α protein (1 μg), blank microspheres, or microspheres containing TNF-α (total 1 μg TNF-α) and incubated at 37° C. After 3 or 7 days, the tissue was rinsed 1× with PBS, placed in 3.7% formaldehyde overnight and stored in 70% ethanol prior to sectioning for histology.
Tissue samples were bisected and subjected to butyl processing and paraffinization by standard procedures, at the histology core facility at the University of Michigan School of Dentistry. This process removes all lipids droplets from the tissue, enabling reproducible and rapid staining. […] Samples were counterstained with hematoxylin, imaged using a Nikon Eclipse E800, and Bax positive and negative cells were counted manually from at least 10 randomly chosen fields. Data were subjected to statistical analysis to determine the significance of the difference (P<0.05) among the measured population proportions of Bax positive cells, using a binomial equation. […]

In the case of “tumor necrosis factor-alpha [TNF-α protein]”, the “Bax staining of adipose tissue” value is on record as “high levels of staining”. Besides, the “percentage of Bax positive cells (apoptotic cells)” value (1 cm^3 explanted tissue) stood at 54%.

For the origin of these results see patent publication US20030022856A1, “Method for sustained release local delivery of drugs for ablation of unwanted tissue” (The Regents Of The University of Michigan, priority 2001, published 2003).
